Data set [1] has as its system L. pneumophila within Dictyostelium. The class given is cell-based, Legionella pneumophila. The following applies: within 6-8 days; 10 μM LY (FIG. 2C); MOI 1.
In data set [2] the test system is Legionella-containing vacuoles in Dictyostelium. Format: cell-based, Dictyostelium discoideum. The following applies: 20 μM LY; 1 h infection; p<10^−9.
The test system of data set [3] is Dictyostelium.
Data set [4] relates to Legionella-containing vacuoles in calnexin-GFP-labeled Dictyostelium. The class given is cell-based, Dictyostelium discoideum.
The subject of data set [5] is Dictyostelium. The class given is cell-based, Dictyostelium discoideum.
Setting [6] is: latrunculin B 1-50 μM, cytochalasin A 1-50 μM, cytochalasin D up to 50 μM, 1 h prior infection.

These results are taken from US7629130B2 (priority 2005, dated 2009).

Where two headings read alike, the source gives them in different places.

Turning to `O=c1cc(N2CCOCC2)oc2c(-c3ccccc3)cccc12` [LY294002], the “viability of L. pneumophila (CFU)” value with L. pneumophila (wortmannin 0.1-10 μM, LY294002 5-25 μM, HL5 medium) is “did not affect viability”. For the same compound, the “factor more wild-type L. pneumophila released compared to wild-type Dictyostelium” value in data set [1] is ~100. Also, the “factor more SidC localized to LCV membranes compared to untreated wild-type Dictyostelium” value in data set [2] is listed as ~1.5. In the data set with Dictyostelium [3], the “viability of Dictyostelium (PFU)” value is recorded as “did not affect viability”, the “viability of Dictyostelium Ax3 in MB medium” value was “as viable as untreated” and the “viability of Dictyostelium at later time points (PFU on K. pneumoniae lawns)” value is “reduced viability”. Further, the “portion of spacious LCVs” value in data set [4] (15 min post infection, 20 μM LY-treated wild-type Dictyostelium (untreated 25%)) is listed as “less than 5%”. The “portion of spacious LCVs” value in data set [4] (within 2 h, 20 μM LY-treated wild-type Dictyostelium (untreated 40%)) is on record as 20%. Besides, in the data set on Dictyostelium [5] (wild-type Dictyostelium treated with PI3K inhibitor (FIG. 2A: 5 μM wortmannin)), the “change in phagocytosis of wild-type L. pneumophila” value is −33%.
As for `C=C1[C@@H](C)[C@H]2[C@H](Cc3ccccc3)NC(=O)[C@]23OC(=O)/C=C/C(=O)CCC[C@@H](C)C/C=C/[C@H]3[C@@H]1O` [cytochalasin A], the Icm/Dot-dependent phagocytosis entry with Dictyostelium [5] is given as “blocked”. In addition, in the data set with Dictyostelium [5] (setting [6]), the “inhibition of phagocytosis (uptake) of L. pneumophila” value (shortened to “inhibition of phagocytosis”) is listed as “blocked phagocytosis in a dose-dependent manner”.
As to `C=C1[C@@H](C)[C@H]2[C@H](Cc3ccccc3)NC(=O)[C@]23[C@H](OC(C)=O)/C=C/[C@@](C)(O)C(=O)[C@@H](C)C/C=C/[C@H]3[C@@H]1O` [cytochalasin D], the “inhibition of phagocytosis” value with Dictyostelium [5] (setting [6]) was “did not prevent uptake”.
Take `C/C1=C/C(=O)O[C@@H]2C[C@@H](CC[C@H](C)/C=C\CC1)O[C@@](O)([C@@H]1CSC(=O)N1)C2` [latrunculin B]: in the data set on Dictyostelium [5], the Icm/Dot-dependent phagocytosis entry is listed as “blocked”, the “inhibition of phagocytosis” value is reported as “blocked phagocytosis in a dose-dependent manner” and the “phagocytosis (FIG. 1)” value was “blocked”.
As for `COC[C@H]1OC(=O)c2coc3c2[C@@]1(C)C1=C(C3=O)[C@@H]2CCC(=O)[C@@]2(C)C[C@H]1OC(C)=O` [wortmannin], the “viability of L. pneumophila (CFU)” value in the data set on L. pneumophila is recorded as “did not affect viability”. In addition, in the data set with Dictyostelium [3], the “viability of Dictyostelium (PFU)” value is “did not affect viability” and the “viability of Dictyostelium Ax3 in MB medium” value is reported as “as viable as untreated”. Further, in the data set on Dictyostelium [5], the “change in phagocytosis of wild-type L. pneumophila” value is given as −19%.
